The source of these data is patent US20170008888A1 (KYORIN PHARMACEUTICAL CO., LTD., priority 2014, published 2017).

Structures are written as SMILES.

Assay [1] deals with T1, BRD4 bromodomain domain I [BRD4(1)] (Homo sapiens, UniProt O60885).
T1 construct: BRD4 bromodomain domain I [BRD4(1)]; purchased Cayman Chemicals
As to the kind of experiment: BRD4 bromodomain domain 1 inhibition assay (TR-FRET). Type of assay: binding. The gist of the method: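 0.5% DMSO, in triplicate, using Cayman BRD4(1) TR-FRET protocol with slight modification. 670/620 nm ratio normalized to 10 μM JQ1, with DMSO control set as 0% inhibition.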

A further assay deals with human PBMCs. The assay is described as follows: Human PBMC TNF-α response to endotoxin (ELISA). The following applies: 0.1 μg/ml LPS 16 h, read-out: EC50 for the inhibition of the human PBMC TNF-α response to endotoxin, ave. ± S.D. Format: cell-based. Summed up:
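PBMCs at 2e6 cells/ml in RPMI 1640 with 10% charcoal-dextran-treated FBS were pre-treated 1 h at 37 °C with compound (4-point 1:5 dilution from 10 μM). Stimulation with 0.1 μg/ml E. coli 0111:B4 LPS for 16 h; TNF-α measured by ELISA (A450) in 25-fold diluted supernatant.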
Background: An ELISA detects its analyte on a solid surface through an enzyme-linked reagent.

The target in another assay is T2, ERK5 (Homo sapiens, UniProt Q13164).
T2 construct: screened for activity against several kinases in Jurkat cells; endogenous in cells; host or cells: Jurkat cell lysate
As to the kind of experiment: Probe-based (AX9989 acyl phosphate ATP probe) kinase profiling in Jurkat lysate: ERK5. Format: binding. The following applies: for IC50: calculated from percent inhibition and screening concentration, Jurkat lysate, AX9989 probe; for inhibition at 10 µM: screening concentration 10 μM, read-out: ERK5 Inhibition % at indicated screening concentration. Summed up: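 Gel-filtered Jurkat lysate (5 mg/ml, 20 mM MnCl2) preincubated 15 min at room temperature with compound, then labelled with 5 μM AX9989 acyl phosphate ATP probe. Probe-labelled ERK5 active-site peptides quantified by LC/MS after trypsin digestion and streptavidin capture; IC50 calculated from percent inhibition at the screening concentration.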

Another assay deals with AurB or AurC. The assay is described as follows: Probe-based (AX9989) kinase profiling in Jurkat lysate: AurB or AurC. Format: binding. The conditions noted are these: screening concentration 10 μM. The gist of the method:
(§1)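 Compounds were pre-incubated for 15 min at room temperature with gel-filtered Jurkat cell lysate supplemented with 20 mM MnCl2, after which the acyl phosphate ATP probe AX9989 was added at 5 μM final. Labeled active-site peptides were enriched after tryptic digestion and measured by LC/MS, with percent inhibition taken relative to samples without compound.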

The test system of the next assay is ABL or ARG. The assay is described as follows: Probe-based (AX9989) kinase profiling in Jurkat lysate: ABL or ARG. The following applies: screening concentration 10 μM. Format: binding. Summed up:
as §1

T2 sequence (Q13164 whole entry): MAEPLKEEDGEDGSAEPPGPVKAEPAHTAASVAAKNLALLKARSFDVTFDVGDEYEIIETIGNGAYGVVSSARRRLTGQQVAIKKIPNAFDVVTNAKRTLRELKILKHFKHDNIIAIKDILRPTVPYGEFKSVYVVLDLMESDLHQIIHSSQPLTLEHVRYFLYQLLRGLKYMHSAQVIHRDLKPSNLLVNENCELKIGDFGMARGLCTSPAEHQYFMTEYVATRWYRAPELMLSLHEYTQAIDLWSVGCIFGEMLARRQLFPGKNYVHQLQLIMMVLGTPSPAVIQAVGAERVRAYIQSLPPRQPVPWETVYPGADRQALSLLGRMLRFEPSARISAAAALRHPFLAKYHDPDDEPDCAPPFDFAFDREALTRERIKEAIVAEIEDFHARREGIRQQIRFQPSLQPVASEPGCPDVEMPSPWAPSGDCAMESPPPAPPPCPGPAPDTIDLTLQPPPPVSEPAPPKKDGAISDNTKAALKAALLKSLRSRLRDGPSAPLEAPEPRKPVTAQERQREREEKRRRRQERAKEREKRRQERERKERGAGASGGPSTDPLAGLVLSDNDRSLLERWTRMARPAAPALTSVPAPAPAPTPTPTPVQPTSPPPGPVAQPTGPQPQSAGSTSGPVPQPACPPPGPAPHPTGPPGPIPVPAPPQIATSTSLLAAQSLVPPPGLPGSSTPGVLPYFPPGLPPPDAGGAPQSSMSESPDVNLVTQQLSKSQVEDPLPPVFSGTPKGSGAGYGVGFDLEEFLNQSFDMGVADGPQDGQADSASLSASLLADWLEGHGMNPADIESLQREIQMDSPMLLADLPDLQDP

Broadly, the IC50 is the concentration needed to halve the response being measured. As a reminder, the EC50 is the concentration needed to bring the measured effect to its halfway point. Consider `CCOc1cc(C(=O)N2CCN(C3CCN(C)CC3)CC2)ccc1Nc1cc2c(cn1)N(C)C(=O)c1ccccc1O2` [Compound T98], for which, in assay [1], the IC50 was in the range of 2000 to 5000 nM. Moreover, the EC50 in the assay with human PBMCs came out at 810 ± 920 nM. Also, at ERK5, the IC50 is 101 to 500 nM and the inhibition at 10 µM is over 90%. For the same compound, the “AurB or AurC Inhibition % at indicated screening concentration” value (“AurB or AurC Inhibition %” below) with AurB or AurC is “E (E is ≦35%)”. In addition, the “ABL or ARG Inhibition % at indicated screening concentration” value (shortened to “ABL or ARG Inhibition %”) with ABL or ARG is recorded as “E (E is ≦35%)”.
Regarding `CCOc1cc(C(=O)N2CCN(C3CCN(C)CC3)CC2)ccc1Nc1cc2c(cn1)N(C)C(=O)c1c(F)cccc1O2` [Compound T102], the 50% inhibitory concentration (IC50) in assay [1] is under 2000 nM; at ERK5, 101 to 500 nM. In addition, the EC50 in the assay on human PBMCs worked out at 290 ± 280 nM. The inhibition at 10 µM at ERK5 is over 90%. Besides, the “AurB or AurC Inhibition %” value with AurB or AurC is “E (E is ≦35%)”. Also, the “ABL or ARG Inhibition %” value in the assay on ABL or ARG is listed as “E (E is ≦35%)”.
In the case of `C[C@@H]1C[C@H](Nc2cc3c(cn2)N(C)C(=O)c2ccccc2N3C)CC[C@H]1O` [Compound T115], the IC50 in assay [1] fell in the range of 2000 to 5000 nM. Further, the EC50 in the assay on human PBMCs stood at 780 ± 690 nM. For the same compound, on ERK5, the IC50 was 101 to 500 nM and the inhibition at 10 µM was over 90%. Also, the “AurB or AurC Inhibition %” value in the assay with AurB or AurC is “E (E is ≦35%)”. Also, the “ABL or ARG Inhibition %” value with ABL or ARG is “E (E is ≦35%)”.
